Laboratory results reported in ChEMBL document CHEMBL1136145, “Antitumor activity of unsaturated fatty acid esters of 4'-demethyldeoxypodophyllotoxin” (Bioorg Med Chem Lett, 2003).
Values after ≈ are worked out from the molar mass of the structure shown.

What was measured:
[1] = tested on: A549; assay: Cytotoxicity in A549 (human carcinoma) cell line.; assay type: functional; details: read-out: ED50 (the source's name)
[2] = tested on: SK-MEL-2; assay: Cytotoxicity in SK-MEL-2 (human melanoma) cell line.; assay type: functional; details: read-out: ED50 (the source's name)
[3] = Inhibition of DNA topoisomerase II in S180 (murine sarcoma) cells.; assay type: functional, cell-based, Mus musculus; details: ccrf s-180
[4] = tested on: CCRF S-180; assay: Cytotoxicity in S-180 (murine sarcoma) cell was determined.; assay type: functional, cell-based; details: Mus musculus
[5] = target: Tubulin; assay: Inhibition of tubulin polymerization in S180 (murine sarcoma) cells.; assay type: functional, cell-based; details: ccrf s-180

SMILES: CCCCCCCCCCCCCCCC(=O)Oc1c(OC)cc([C@@H]2c3cc4c(cc3C[C@H]3COC(=O)[C@@H]32)OCO4)cc1OC
- EC50 [1]: 0.268 µg/mL (≈ 0.43 µM)
- EC50 [2]: 0.29 µg/mL (≈ 0.466 µM)

SMILES: CCCCCC/C=C/CCCCCCCCCC(=O)Oc1c(OC)cc([C@@H]2c3cc4c(cc3C[C@H]3COC(=O)[C@@H]32)OCO4)cc1OC
- EC50 [1]: 1.01 µg/mL (≈ 1.56 µM)
- EC50 [2]: 0.253 µg/mL (≈ 0.39 µM)

SMILES: CCCCC/C=C\C/C=C\C/C=C\CCCCC(=O)Oc1c(OC)cc([C@@H]2c3cc4c(cc3C[C@H]3COC(=O)[C@@H]32)OCO4)cc1OC
- EC50 [1]: 0.085 µg/mL (≈ 0.132 µM)
- EC50 [2]: 0.041 µg/mL (≈ 0.0636 µM)

SMILES: CCCCC/C=C\C/C=C\CCCCCCCC(=O)Oc1c(OC)cc([C@@H]2c3cc4c(cc3C[C@H]3COC(=O)[C@@H]32)OCO4)cc1OC
- EC50 [1]: 0.09 µg/mL (≈ 0.139 µM)
- EC50 [2]: 0.03 µg/mL (≈ 0.0464 µM)

SMILES: CCCCCCCC/C=C\CCCCCCCCCC(=O)Oc1c(OC)cc([C@@H]2c3cc4c(cc3C[C@H]3COC(=O)[C@@H]32)OCO4)cc1OC
- EC50 [1]: > 5 µg/mL
- EC50 [2]: > 5 µg/mL

SMILES: CCCCCCCCCCCCCCCCCCCCCC(=O)Oc1c(OC)cc([C@@H]2c3cc4c(cc3C[C@H]3COC(=O)[C@@H]32)OCO4)cc1OC
- EC50 [1]: > 5 µg/mL
- EC50 [2]: > 5 µg/mL

SMILES: CC/C=C\C/C=C\C/C=C\C/C=C\C/C=C\C/C=C\CCC(=O)Oc1c(OC)cc([C@@H]2c3cc4c(cc3C[C@H]3COC(=O)[C@@H]32)OCO4)cc1OC
- EC50 [1]: 0.119 µg/mL (≈ 0.171 µM)
- EC50 [2]: 0.035 µg/mL (≈ 0.0504 µM)

SMILES: COc1cc([C@@H]2c3cc4c(cc3C[C@H]3COC(=O)[C@@H]32)OCO4)cc(OC)c1O [4'-DEMETHYLDEOXYPODOPHYLLOTOXIN]
- EC50 [1]: 0.023 µg/mL (≈ 0.0598 µM)
- IC50 [3]: 24500 nM
- IC50 [4]: 30 nM
- IC50 [5]: 2000 nM
- EC50 [2]: 0.015 µg/mL (≈ 0.039 µM)

SMILES: CCCC/C=C\C/C=C\CCCCCCCCCC(=O)Oc1c(OC)cc([C@@H]2c3cc4c(cc3C[C@H]3COC(=O)[C@@H]32)OCO4)cc1OC
- EC50 [1]: 0.87 µg/mL (≈ 1.32 µM)
- EC50 [2]: 0.347 µg/mL (≈ 0.525 µM)

SMILES: CCCCCCCCCCCCCCCCCC(=O)Oc1c(OC)cc([C@@H]2c3cc4c(cc3C[C@H]3COC(=O)[C@@H]32)OCO4)cc1OC
- EC50 [1]: 2.67 µg/mL (≈ 4.1 µM)
- EC50 [2]: > 5 µg/mL

SMILES: CCCCCC/C=C\CCCCCCCC(=O)Oc1c(OC)cc([C@@H]2c3cc4c(cc3C[C@H]3COC(=O)[C@@H]32)OCO4)cc1OC
- EC50 [1]: 0.733 µg/mL (≈ 1.18 µM)
- EC50 [2]: 0.065 µg/mL (≈ 0.105 µM)

SMILES: CCCCCCCC/C=C\CCCCCCCCCCCC(=O)Oc1c(OC)cc([C@@H]2c3cc4c(cc3C[C@H]3COC(=O)[C@@H]32)OCO4)cc1OC
- EC50 [1]: 2.71 µg/mL (≈ 3.84 µM)
- EC50 [2]: 0.561 µg/mL (≈ 0.796 µM)

SMILES: CCCCCCC/C=C/CCCCCCCCCC(=O)Oc1c(OC)cc([C@@H]2c3cc4c(cc3C[C@H]3COC(=O)[C@@H]32)OCO4)cc1OC
- EC50 [1]: 1.66 µg/mL (≈ 2.5 µM)
- EC50 [2]: 1.13 µg/mL (≈ 1.7 µM)

SMILES: CCCCCCCC/C=C\CCCCCCCC(=O)Oc1c(OC)cc([C@@H]2c3cc4c(cc3C[C@H]3COC(=O)[C@@H]32)OCO4)cc1OC
- EC50 [1]: 0.179 µg/mL (≈ 0.276 µM)
- EC50 [2]: 0.159 µg/mL (≈ 0.245 µM)

SMILES: CC/C=C\C/C=C\C/C=C\CCCCCCCC(=O)Oc1c(OC)cc([C@@H]2c3cc4c(cc3C[C@H]3COC(=O)[C@@H]32)OCO4)cc1OC
- EC50 [1]: 0.084 µg/mL (≈ 0.13 µM)
- EC50 [2]: 0.048 µg/mL (≈ 0.0744 µM)

SMILES: CCCCCC/C=C\CCCCCCCCCC(=O)Oc1c(OC)cc([C@@H]2c3cc4c(cc3C[C@H]3COC(=O)[C@@H]32)OCO4)cc1OC
- EC50 [1]: 0.335 µg/mL (≈ 0.516 µM)
- EC50 [2]: 0.057 µg/mL (≈ 0.0878 µM)

SMILES: CCCCC/C=C/C/C=C/CCCCCCCC(=O)Oc1c(OC)cc([C@@H]2c3cc4c(cc3C[C@H]3COC(=O)[C@@H]32)OCO4)cc1OC
- EC50 [1]: 0.259 µg/mL (≈ 0.4 µM)
- EC50 [2]: 0.11 µg/mL (≈ 0.17 µM)

SMILES: CCCCCCCC/C=C/CCCCCCCC(=O)Oc1c(OC)cc([C@@H]2c3cc4c(cc3C[C@H]3COC(=O)[C@@H]32)OCO4)cc1OC
- EC50 [1]: 0.367 µg/mL (≈ 0.566 µM)
- EC50 [2]: 0.55 µg/mL (≈ 0.848 µM)

SMILES: COc1cc([C@@H]2c3cc4c(cc3C[C@H]3COC(=O)[C@@H]32)OCO4)cc(OC)c1OC [DESOXYPODOPHYLLOTOXIN]
- EC50 [1]: 0.012 µg/mL (≈ 0.0301 µM)
- EC50 [2]: 0.009 µg/mL (≈ 0.0226 µM)

SMILES: CCCCCCCCCCCCCCCCCCCC(=O)Oc1c(OC)cc([C@@H]2c3cc4c(cc3C[C@H]3COC(=O)[C@@H]32)OCO4)cc1OC
- EC50 [1]: > 5 µg/mL
- EC50 [2]: > 5 µg/mL

SMILES: CCCC/C=C\C/C=C\C/C=C\C/C=C\CCCC(=O)Oc1c(OC)cc([C@@H]2c3cc4c(cc3C[C@H]3COC(=O)[C@@H]32)OCO4)cc1OC
- EC50 [1]: 0.91 µg/mL (≈ 1.39 µM)
- EC50 [2]: 0.184 µg/mL (≈ 0.28 µM)
